Laboratory results as given in BindingDB's records for patent US20240294509 (Euregen Biopharma Co., 2024).

Legend:
[1] = target: Poly [ADP-ribose] polymerase 1 (Homo sapiens, UniProt P09874); test: Inhibition of Compounds on PARP1/7 Enzyme Activity
Description: (§1) Fit the dose-response data with standard dilutions using Prism GraphPad software and calculate the concentration required to achieve 5000 inhibition of PARP1 or PARP7 enzyme activity (IC50).

[2] = target: T1, Protein mono-ADP-ribosyltransferase TIPARP (Homo sapiens, UniProt Q7Z3E1); test: Inhibition of Compounds on PARP1/7 Enzyme Activity
T1 sequence (Q7Z3E1 whole entry): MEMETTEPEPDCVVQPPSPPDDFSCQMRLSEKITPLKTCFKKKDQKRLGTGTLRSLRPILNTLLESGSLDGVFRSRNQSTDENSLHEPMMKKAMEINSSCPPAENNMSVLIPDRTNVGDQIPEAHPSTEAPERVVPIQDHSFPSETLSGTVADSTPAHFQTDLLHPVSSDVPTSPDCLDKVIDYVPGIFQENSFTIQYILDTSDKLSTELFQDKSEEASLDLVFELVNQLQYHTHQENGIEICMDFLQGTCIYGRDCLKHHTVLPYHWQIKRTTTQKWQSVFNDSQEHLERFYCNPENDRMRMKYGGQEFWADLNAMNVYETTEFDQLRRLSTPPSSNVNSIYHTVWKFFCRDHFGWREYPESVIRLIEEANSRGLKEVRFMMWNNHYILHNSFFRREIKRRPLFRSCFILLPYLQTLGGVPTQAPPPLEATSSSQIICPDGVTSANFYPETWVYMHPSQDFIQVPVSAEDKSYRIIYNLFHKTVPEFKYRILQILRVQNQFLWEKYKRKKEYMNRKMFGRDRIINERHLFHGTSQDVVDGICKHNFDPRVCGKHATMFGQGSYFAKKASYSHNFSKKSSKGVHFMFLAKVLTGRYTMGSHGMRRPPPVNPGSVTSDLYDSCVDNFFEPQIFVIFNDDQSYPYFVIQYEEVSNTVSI
Description: as §1

Sequence of Poly [ADP-ribose] polymerase 1 (P09874 whole entry): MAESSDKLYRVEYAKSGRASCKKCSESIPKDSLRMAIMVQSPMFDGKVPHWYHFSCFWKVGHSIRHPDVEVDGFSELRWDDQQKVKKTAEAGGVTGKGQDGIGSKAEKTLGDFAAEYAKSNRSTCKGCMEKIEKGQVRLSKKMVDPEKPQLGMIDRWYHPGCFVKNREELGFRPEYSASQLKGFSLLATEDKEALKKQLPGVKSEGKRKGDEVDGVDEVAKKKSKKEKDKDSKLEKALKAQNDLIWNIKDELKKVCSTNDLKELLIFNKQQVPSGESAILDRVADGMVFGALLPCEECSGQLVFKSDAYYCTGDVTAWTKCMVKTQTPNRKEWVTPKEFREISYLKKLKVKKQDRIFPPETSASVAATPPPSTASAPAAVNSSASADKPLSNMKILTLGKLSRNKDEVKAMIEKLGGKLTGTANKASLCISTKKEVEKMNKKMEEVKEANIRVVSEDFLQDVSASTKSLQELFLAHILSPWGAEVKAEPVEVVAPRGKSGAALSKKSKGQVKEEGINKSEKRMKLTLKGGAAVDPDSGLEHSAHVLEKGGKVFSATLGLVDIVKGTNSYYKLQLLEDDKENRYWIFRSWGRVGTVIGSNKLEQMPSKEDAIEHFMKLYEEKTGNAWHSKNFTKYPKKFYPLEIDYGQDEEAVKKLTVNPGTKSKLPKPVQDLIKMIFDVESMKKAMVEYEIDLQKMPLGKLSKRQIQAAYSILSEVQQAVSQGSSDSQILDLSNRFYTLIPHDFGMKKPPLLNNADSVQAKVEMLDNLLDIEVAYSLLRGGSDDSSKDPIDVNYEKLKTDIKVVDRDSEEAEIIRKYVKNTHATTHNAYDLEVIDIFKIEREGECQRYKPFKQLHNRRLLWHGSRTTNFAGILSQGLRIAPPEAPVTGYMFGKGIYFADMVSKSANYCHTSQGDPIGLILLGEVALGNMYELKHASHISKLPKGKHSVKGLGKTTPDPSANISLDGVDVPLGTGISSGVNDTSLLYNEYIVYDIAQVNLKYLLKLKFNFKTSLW

SMILES	IC50 [1]	IC50 [2]
O=C(CC[C@@H]1C[C@@H](Oc2ccc(F)cc2F)CN1c1cc(C(F)(F)F)c(=O)[nH]n1)N1CCN(c2ncc(C(F)(F)F)cn2)CC1 [US20240294509, Compound 50]	15 nM	13 nM
O=C(CC[C@@H]1C[C@@H](F)CN1c1cc(C(F)(F)F)c(=O)[nH]n1)N1CCN(c2ncc(C(F)(F)F)cn2)CC1 [US20240294509, Compound 20]	49 nM	3.2 nM
O=C(CC[C@@H]1CCCN1c1cc(C(F)(F)F)c(=O)[nH]n1)N1CCN(c2ncc(C(F)(F)F)cn2)CC1	1.3 nM	2.9 nM
O=C(COC[C@@H]1CCCN1c1cc(C(F)(F)F)c(=O)[nH]n1)N1CCN(c2ncc(C(F)(F)F)cn2)CC1 [US20240294509, Compound 1]	293 nM	4 nM
O=C(CC[C@@H]1C[C@@H](Oc2cncnc2)CN1c1cc(C(F)(F)F)c(=O)[nH]n1)N1CCN(c2ncc(C(F)(F)F)cn2)CC1 [US20240294509, Compound 63]	179 nM	3 nM

Now from value to compound:

IC50 [1]	IC50 [2]	SMILES
2020 nM	4.4 nM	O=C(CC[C@@H]1C[C@H](Oc2ccccc2)CN1c1cc(C(F)(F)F)c(=O)[nH]n1)N1CCN(c2ncc(C(F)(F)F)cn2)CC1 [US20240294509, Compound 19]
15600 nM	82 nM	O=C(CC[C@@H]1C[C@H](Oc2cc(F)cc(F)c2)CN1c1cc(C(F)(F)F)c(=O)[nH]n1)N1CCN(c2ncc(C(F)(F)F)cn2)CC1 [US20240294509, Compound 55]
3190 nM	54 nM	O=C(CC[C@@H]1C[C@H](Oc2ccc(F)c(F)c2)CN1c1cc(C(F)(F)F)c(=O)[nH]n1)N1CCN(c2ncc(C(F)(F)F)cn2)CC1 [US20240294509, Compound 58]
79 nM	26 nM	O=C(CC[C@@H]1C[C@@H](Oc2cccc(Cl)c2)CN1c1cc(C(F)(F)F)c(=O)[nH]n1)N1CCN(c2ncc(C(F)(F)F)cn2)CC1 [US20240294509, Compound 49]
